Target: Aldo-keto reductase family 1 member B1 (Homo sapiens, UniProt P15121)
Assay: Enzyme Inhibition Assay
Settings: pH 6.2; 30 °C
Method: The activity of the test enzyme was determined spectrophotometrically by monitoring the change in absorbance at 340 nm, which is due to the oxidation of NADPH or the reduction of NAD+ catalyzed by ALR2. The determination of the IC50 values was performed by using linear regression analysis of the log dose response curve.

IC50 [µM]	Structure (SMILES)
100	Nc1cccc2ccc3c(c12)C(=O)N(CC(=O)O)S3(=O)=O [2-(13-amino-3,5,5-trioxo-5-thia-4-azatricyclo[7.4.0.0^{2,6}]trideca-1,6,8,10,12-pentaen-4-yl)acetic acid]
0.55	O=C(O)COC(=O)c1cc2ccccc2c2c1S(=O)(=O)N(CC(=O)O)C2=O [2-{[4-(carboxymethyl)-3,5,5-trioxo-5-thia-4-azatricyclo[7.4.0.0^{2,6}]trideca-1,6,8,10,12-pentaen-7-yl]carbonyloxy}acetic acid]
100	Nc1cccc2c3c(ccc12)S(=O)(=O)N(CC(=O)O)C3=O [2-(10-amino-3,5,5-trioxo-5-thia-4-azatricyclo[7.4.0.0^{2,6}]trideca-1,6,8,10,12-pentaen-4-yl)acetic acid]
180	O=C(O)CN1C(=O)c2c(ccc3c([N+](=O)[O-])cccc23)S1(=O)=O [2-(10-nitro-3,5,5-trioxo-5-thia-4-azatricyclo[7.4.0.0^{2,6}]trideca-1,6,8,10,12-pentaen-4-yl)acetic acid]
88	CN1C(=O)c2c(c(C(=O)O)cc3ccccc23)S1(=O)=O [4-methyl-3,5,5-trioxo-5-thia-4-azatricyclo[7.4.0.0^{2,6}]trideca-1,6,8,10,12-pentaene-7-carboxylic acid]
0.14	O=C(O)CN1C(=O)c2c(c(C(=O)O)cc3ccccc23)S1(=O)=O [2-(carboxymethyl)-1-oxo-1,2-dihydronaphtho[1,2-d]isothiazole-4-carboxylic acid 3,3-dioxide]
10	O=C(O)CN1C(=O)c2c(ccc3ccccc23)S1(=O)=O [2-(3,5,5-trioxo-5-thia-4-azatricyclo[7.4.0.0^{2,6}]trideca-1,6,8,10,12-pentaen-4-yl)acetic acid]
190	O=C(O)CN1C(=O)c2c(ccc3cccc([N+](=O)[O-])c23)S1(=O)=O [2-(13-nitro-3,5,5-trioxo-5-thia-4-azatricyclo[7.4.0.0^{2,6}]trideca-1,6,8,10,12-pentaen-4-yl)acetic acid]
